Measured values: US11971412B2, “Polypeptide-antibody complexes and uses thereof” (Mayo Foundation for Medical Education and Research, priority 2017, dated 2024)
Ends that are not written are not given here.

Key:
[1] = system: CD20+ Daudi lymphoma cells; experiment: Flow cytometry staining of CD20+ Daudi lymphoma cells; assay type: cell-based; settings: CD20+ Daudi lymphoma cells incubated 30 minutes at 4° C., washed with FACS buffer
Experimental: FIG. 1 is a series of scatter plots from flow cytometry studies using a polypeptide having the sequence […] (SEQ ID NO:3) that was labeled with QDs that emit at a wavelength of 565 nm, and complexed with a therapeutic antibody (rituximab). […] CD20+ Daudi lymphoma cells were incubated with isotype control, FITC-rituximab, peptide-QD only, peptide-QD+rituximab (10:1), and peptide-QD+rituximab (25:1) for 30 minutes at 4° C. After washing with FAGS buffer (PBS+0.5% BSA and 0.5% Na azide), the stained cells were analyzed by flow cytometry for recognition of CD20. The Daudi cells were 95% CD20+ (top left), 11.62% positive when stained with peptide-QD only (bottom left), and 57.02% and 61.31% positive with peptide-QD-rituximab at 10:1 and 25:1 (bottom center and bottom right, respectively).
The fluorescently labeled peptide was then bound to rituximab, trastuzumab, or atezolizumab and tested for binding to tumor cells expressing the pertinent tumor target. […] CD20+ Daudi lymphoma cells were incubated with isotype control, FITC-rituximab, polypeptide-QD only, polypeptide-QD-rituximab (10:1) complex, and polypeptide-QD-rituximab (25:1) complex for 30 minutes at 4° C. After washing with FACS buffer (PBS+0.5% BSA and 0.5% Na azide), the stained cells were analyzed by flow cytometry. […]

[2] = system: SK-Br-3 (HER2/neu-positive) cells; experiment: Flow cytometry staining of HER2/neu-positive SK-Br-3 cells; assay type: cell-based
Experimental: FIG. 4 is a series of scatter plots from flow cytometry studies using SK-Br-3 (HER2/neu-positive) cells stained with a SEQ ID NO:3-QD-trastuzumab complex. The SK-Br-3 cells were incubated with isotype control antibody (top left), PE-anti-HER2 (top middle), SEQ ID NO:3-QD only (top right), and SEQ ID NO:3-QD-trastuzumab complex (bottom left). The cells were 84.7% positive for HER2/neu, 15.9% positive with SEQ ID NO:3-QD only and 68.9% positive with SEQ ID NO:3-QD-trastuzumab complex. A histogram representation of the data is included at the bottom right of the figure.
Additional experiments utilized HER2/neu-positive SK-Br-3 cells stained with polypeptide-QD bound to trastuzumab. The SK-Br-3 cells were incubated with isotype (FIG. 4, top left), PE-anti-HER2 (FIG. 4, top middle), polypeptide-QD only (FIG. 4, top right), and polypeptide-QD-trastuzumab complex (FIG. 4, bottom left). The cells were 84.7% positive for HER2/neu, 15.9% positive with polypeptide-QD only and 68.9% positive with the polypeptide-QD-trastuzumab complex. A histogram representation of the data is shown at the bottom right of […].

Substance	Daudi cells positive by flow cytometry [1]	SK-Br-3 cells positive by flow cytometry [2]
polypeptide-QD only: SEQ ID NO:3 polypeptide thiol-linked via SMCC crosslinker to PEG-coated Quantum Dots, without antibody (CGSGGGSVVLNQLCVLHEKTPVSDR; not fully specified (residue 1); also: Cys1 thiol linked via SMCC to PEG-coated quantum dot)	11.62%	15.9%
FITC-rituximab: FITC-labeled rituximab used as direct CD20 stain of Daudi cells [reference compound]	95%	
